Measurements published in the supplement of paper PMC10307832.

Experiments:
Assay in all cases: relative viability (nuclei count vs DMSO), 5 days (fraction); higher = more cells survive
[1] = compound: C1=CC(=CC=C1NC(=S)NNC2=C(C=C(C=C2[N+](=O)[O-])C(F)(F)F)[N+](=O)[O-])F [Kobe2602] + N=C(N)NC(=N)NCCc1ccccc1 [Phenformin] (partner 250 µM)
Outline: (§1)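 Lung cancer cell lines were seeded in 1536-well plates and dosed by pin tool the next day, with either a single drug or a fixed anchor-drug dose combined with five library-drug doses (not always all listed) spaced in √10 steps. Five days later, one step fixed the cells and stained their nuclei (final 0.05% Triton X-100, 1% formaldehyde, 1 ug/ml Hoechst), and nuclei were counted on 4× images. Relative viability is the nuclei count in treated wells divided by the count in vehicle wells, and each value is the median of duplicate plates.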

[2] = compound: COc1cc2nccc(Oc3ccc(NC(=O)C4(C(=O)Nc5ccc(F)cc5)CC4)cc3)c2cc1OC [Cabozantinib] + CS(=O)(=O)CCNCc1ccc(-c2ccc3ncnc(Nc4ccc(OCc5cccc(F)c5)c(Cl)c4)c3c2)o1 [Lapatinib] (partner 2 µM)
Outline: as §1

[3] = compound: O[C@@H](COc1cccc2ncccc12)CN1CCN([C@@H]2c3ccccc3[C@@H]3[C@H](c4ccccc42)C3(F)F)CC1 [Zosuquidar] + N=C(N)NC(=N)NCCc1ccccc1 [Phenformin] (partner 250 µM)
Outline: as §1

[4] = compound: O[C@@H](COc1cccc2ncccc12)CN1CCN([C@@H]2c3ccccc3[C@@H]3[C@H](c4ccccc42)C3(F)F)CC1 [Zosuquidar] + O=C(c1cc(Cc2n[nH]c(=O)c3ccccc23)ccc1F)N1CCN(C(=O)C2CC2)CC1 [Olaparib] (partner 8 µM)
Outline: as §1

Row | Cell Line | relative viability ([1]; first compound 0.2 µM) | relative viability ([1]; first compound 0.6325 µM) | relative viability ([1]; first compound 2 µM) | relative viability ([1]; first compound 6.325 µM) | relative viability ([1]; first compound 20 µM) | relative viability ([2]; first compound 0.02 µM) | relative viability ([2]; first compound 0.06325 µM) | relative viability ([2]; first compound 0.2 µM) | relative viability ([2]; first compound 0.6325 µM) | relative viability ([2]; first compound 2 µM) | relative viability ([3]; first compound 0.01 µM) | relative viability ([3]; first compound 0.03162 µM) | relative viability ([3]; first compound 0.1 µM) | relative viability ([3]; first compound 0.3162 µM) | relative viability ([3]; first compound 1 µM) | relative viability ([4]; first compound 0.01 µM) | relative viability ([4]; first compound 0.03162 µM) | relative viability ([4]; first compound 0.1 µM) | relative viability ([4]; first compound 0.3162 µM) | relative viability ([4]; first compound 1 µM)
1 | NCI-H2023 | 0.419 | 0.442 | 0.432 | 0.352 | 0.244 | 0.473 | 0.74 | 0.708 | 0.552 | 0.591 | 0.387 | 0.426 | 0.385 | 0.408 | 0.396 | 0.498 | 0.549 | 0.52 | 0.485 | 0.477
2 | NCI-H2085 | 0.682 | 0.687 |  | 0.684 | 0.708 | 0.793 | 0.881 | 0.676 | 0.728 | 0.643 | 0.736 | 0.682 | 0.479 | 0.877 | 0.69 | 0.706 | 0.809 |  | 0.736 | 0.751
3 | NCI-H2087 | 0.437 | 0.47 | 0.462 | 0.471 | 0.438 | 1.09 | 1.18 | 1.02 | 1.01 | 0.982 | 0.426 |  | 0.363 | 0.545 | 0.492 | 0.586 | 0.557 | 0.603 | 0.578 | 0.539
4 | NCI-H2126 | 0.552 | 0.53 | 0.521 | 0.513 | 0.494 | 0.612 | 0.843 | 0.723 | 0.75 | 0.77 | 0.544 | 0.542 |  | 0.539 | 0.532 | 0.909 | 0.868 | 0.849 | 0.922 | 0.917
5 | NCI-H2170 | 0.414 | 0.475 | 0.423 | 0.406 | 0.403 | 0.263 | 0.302 | 0.16 | 0.353 | 0.27 | 0.388 | 0.463 | 0.393 | 0.395 | 0.445 | 0.546 | 0.629 | 0.612 | 0.63 | 0.562
6 | NCI-H2228 | 0.35 | 0.449 | 0.359 | 0.295 | 0.361 | 1.08 | 1.41 | 1.11 | 1 | 1.06 | 0.291 | 0.338 | 0.256 | 0.47 | 0.257 | 0.626 | 0.51 | 0.61 | 0.64 | 0.936
7 | NCI-H2347 | 0.529 | 0.48 | 0.375 | 0.469 | 0.407 | 0.883 | 0.951 | 1.03 | 0.824 | 0.925 | 0.411 | 0.394 | 0.253 | 0.396 | 0.426 | 0.589 | 0.545 | 0.579 | 0.603 | 0.475
8 | NCI-H2405 | 0.418 | 0.431 | 0.411 | 0.393 | 0.452 |  | 1.16 | 1.2 | 1.1 | 1.02 | 0.406 | 0.348 | 0.344 | 0.46 | 0.388 | 0.903 | 0.758 | 0.756 | 0.95 | 0.829
9 | NCI-H3122 | 0.425 | 0.402 | 0.378 | 0.394 | 0.364 | 1.01 | 1.01 | 1.02 | 1.03 | 0.954 | 0.346 | 0.38 |  | 0.377 | 0.319 | 0.606 | 0.608 | 0.565 | 0.621 | 0.637
10 | PC-3 [JPC-3] | 0.489 | 0.508 | 0.525 | 0.464 | 0.502 | 0.398 | 0.473 |  | 0.407 | 0.391 | 0.493 | 0.493 | 0.462 | 0.46 | 0.453 | 1.09 | 1.18 | 0.873 | 1.09 | 1.1
11 | PC-14 | 0.59 | 0.804 | 0.558 | 0.699 | 0.592 | 0.27 | 0.3 |  | 0.273 | 0.27 | 0.502 | 0.533 | 0.447 | 0.645 | 0.47 | 0.26 | 0.319 | 0.205 | 0.307 | 0.179
12 | RERF-LC-KJ | 0.437 | 0.413 | 0.395 | 0.413 | 0.377 | 0.904 | 0.894 | 0.784 | 0.776 | 0.815 | 0.41 | 0.45 | 0.397 | 0.402 | 0.355 | 0.802 | 0.985 | 0.878 | 1.01 | 0.855
13 | SK-LU-1 | 0.618 | 0.682 | 0.584 | 0.526 | 0.597 |  | 0.539 | 0.929 | 0.774 | 0.634 | 0.547 | 0.522 | 0.531 | 0.632 | 0.557 | 0.517 | 0.535 | 0.485 | 0.531 | 0.435
14 | SK-MES-1 | 0.676 | 0.715 | 0.683 | 0.589 | 0.455 | 0.468 | 0.497 | 0.42 | 0.448 | 0.396 | 0.661 | 0.622 | 0.644 | 0.607 | 0.637 | 0.707 | 0.739 | 0.829 | 0.73 | 0.723
15 | SW 1573 | 0.346 | 0.47 | 0.378 | 0.346 | 0.168 | 1.06 | 1.03 | 1.23 | 1.23 | 1.04 | 0.405 | 0.311 | 0.457 | 0.417 | 0.39 | 0.427 | 0.357 | 0.544 | 0.471 | 0.446
